Here are results for one molecule from patent US10738051B2, “β-lactamase inhibitors” (priority 2016, dated 2020).

Molecules are shown by their SMILES. A value given as a limit tells only on which side of the number the result lay.

The subject of test [1] is Klebsiella pneumoniae (ATCC BAA-1705, KPC-2). The test is described as follows: Mouse lung infection model. Format: in vivo, CD-1 mice. The following applies: ip, combined with ceftazidime. As to the method:
Female CD-1 mice of about 7 weeks old, weighing 26-28 g; cyclophosphamide was injected at a dose of 150 mg/kg 4 days before infection, and further 100 mg/kg 1 day before infection; the bacteria infected was Klebsiella pneumoniae (ATCC BAA-1705, KPC-2). Compound 1 and the reference compound OP-0595 were synthesized in the laboratory.
Female CD-1 mice were infected with Klebsiella pneumoniae by intranasal instillation. Each mouse was instilled with 50 μL bacterial fluid through nasal cavity at a dose of 3.14E+07 CFU per mouse. At 2 h, 4 h, 6 h and 8 h after infection, each group of mice were treated with a corresponding compound or combined compounds by intraperitoneal injection.
At 10 h after infection, the mice in group 1, 2 and 3 were euthanized, and the lung was taken out and placed in a 50 mL centrifuge tube containing 10 mL sterile normal saline, the tube was placed on wet ice and transferred to BSL-2 laboratory for CFU counting. At 20 h after infection, the mice in group 4, 5 and 6 were euthanized and treated according to the same procedure.
The lungs were ground with an IKA T10 homogenizer (the maximum speed was 20S, repeated once). […] After 24 hours, the plate was taken out and the number of single colonies grown in each homogenate with a gradient dilution, and the amount of bacterial load in the lung of each mouse was calculated.

Test [2] deals with K. pneumoniae ATCC BAA-2472 (NDM-1). As to the kind of experiment: In vitro synergistic inhibitory concentration (SIC) assay. The following applies: Klebsiella pneumoniae, ATCCBAA2472, 37° C. 20 hours, read-out: minimum inhibitory concentration, used alone. Type of test: cell-based. As to the method: (§1) 2) 30 μL dimethyl sulfoxide was added to columns 2-12 of the 96-V well plate. 60 μL prepared ceftazidime was added to column 1. 30 μL ceftazidime was transferred from column 1 to column 2 and mixed with a pipette. The same operation was continued until column 11, and 30 μL of the mixture in column 11 was discarded. This was the compound mother plate.
(§2) Mix the liquid in the mother plate with a pipette.
(§3) 4) One day before the experiment, the bacterial glycerol stock which was stored in a −80° C. refrigerator was streaked on a trypticase soy agar plate (TSA), and the plate was incubated in a 37° C. incubator overnight. On the day of the experiment, the monoclonal bacterial was suspended in physiological saline and the turbidity of which was adjusted to 0.5 McFarland standard, corresponding to 1×10^8 CFU/ml. This suspension was diluted 100-fold to 1×10^6 CFU/mL with caton-adjusted Mueller-Hnton broth (CAMHB), which was used as an inoculation fluid.
(§4) 5) a 96-U plate was used as a test plate. Firstly, adding 98 μL CAMHB to each well of the test plate and transferring 2 μL solution in the mother plate to the test plate. 100 μL inoculation fluid was added to each well of the test plate.
(§5) 6) The test plate was incubated at 37° C. for 20 hours.
(§6) The above-mentioned method was also used to determine the antibacterial activity of the test compound or the antibiotic when used alone.

The test system of test [3] is K. pneumoniae ATCC BAA-1898 (KPC). The description is as above. Type of test: cell-based. The following applies: Klebsiella pneumoniae, ATCCBAA1898, 37° C. 20 hours, read-out: minimum inhibitory concentration, used alone. The method, then:
as §1, §2, §3, §4, §5, §6

In test [4] the test system is K. pneumoniae ATCC BAA-205 (TEM-1/SHV-1/SHV-12). The test is described as above. Format: cell-based. The following applies: Klebsiella pneumoniae, ATCCBAA205, 37° C. 20 hours, read-out: minimum inhibitory concentration, used alone. As to the method:
as §1, §2, §3, §4, §5, §6

In test [5] the test system is E. coli ATCC BAA-2523 (OXA-48). The description is as above. Type of test: cell-based. The following applies: Escherichia coli, ATCCBAA2523, 37° C. 20 hours, read-out: minimum inhibitory concentration, used alone. The method, then:
as §1, §2, §3, §4, §5, §6

The test system of test [6] is K. pneumoniae ATCC BAA-2524 (OXA-48). Described as above. Format: cell-based. The following applies: Klebsiella pneumoniae, ATCCBAA2524, 37° C. 20 hours, read-out: minimum inhibitory concentration, used alone. As to the method: as §1, §2, §3, §4, §5, §6
Test [7] has as its system K. pneumoniae ATCC-700603 (SHV-18). The description is as above. Format: cell-based. Conditions: Klebsiella pneumoniae, ATCC700603, 37° C. 20 hours, read-out: minimum inhibitory concentration, used alone. The method, then: as §1, §2, §3, §4, §5, §6
In test [8] the test system is K. pneumoniae ATCC 51503 (TEM-10/12). The test is described as above. Format: cell-based. The following applies: Klebsiella pneumoniae, ATCC51503, 37° C. 20 hours, read-out: minimum inhibitory concentration, used alone. As to the method: as §1, §2, §3, §4, §5, §6
Test [9] relates to E. cloacae ATCC BAA-1143 (AmpC). The description is as above. Type of test: cell-based. Conditions: Enterobacter cloacae, ATCCBAA1143, 37° C. 20 hours, read-out: minimum inhibitory concentration, used alone. The method, then: as §1, §2, §3, §4, §5, §6
Test [10] concerns K. pneumoniae ATCC BAA-2470 (NDM-1). The description is as above. Type of test: cell-based. Conditions: Klebsiella pneumoniae, ATCCBAA2470, 37° C. 20 hours, read-out: minimum inhibitory concentration, used alone. As to the method:
as §1, §2, §3, §4, §5, §6

The subject of test [11] is K. pneumoniae ATCC BAA-1899 (KPC). Described as above. Format: cell-based. Conditions: Klebsiella pneumoniae, ATCCBAA1899, 37° C. 20 hours, read-out: minimum inhibitory concentration, used alone. The method, then:
as §1, §2, §3, §4, §5, §6

Test [12] concerns K. pneumoniae ATCC 51504 (TEM-10). The description is as above. Conditions: Klebsiella pneumoniae, ATCC51504, 37° C. 20 hours, read-out: minimum inhibitory concentration, used alone. Format: cell-based. As to the method: as §1, §2, §3, §4, §5, §6
In test [13] the test system is K. pneumoniae ATCC BAA-1144 (AmpC). The description is as above. Format: cell-based. The following applies: Klebsiella pneumoniae, ATCCBAA1144, 37° C. 20 hours, read-out: minimum inhibitory concentration, used alone. The method, then:
as §1, §2, §3, §4, §5, §6

Test [14] deals with K. pneumoniae ATCC BAA-1705 (KPC). Described as above. Type of test: cell-based. The following applies: Klebsiella pneumoniae, ATCCBAA1705, 37° C. 20 hours, read-out: minimum inhibitory concentration, used alone. As to the method: as §1, §2, §3, §4, §5, §6

Turning to `N=C(N)NOCCONC(=O)[C@@H]1CC[C@@H]2CN1C(=O)N2OS(=O)(=O)O` [Compound 1], the “reduction of the amount of bacterial load in the lung compared with the reference group of OP-0595” value in test [1] (female CD-1 mice, K. pneumoniae ATCC BAA-1705 (KPC-2), 25/6.25 mpk and 50/12.5 mpk) is on record as 0.5-1.5 logs. Further, the “potency compared with reference compound OP-0595” value in test [1] (mouse lung infection model) was “significantly more potent”. The MIC in [2] was over 128 µg/mL; in test [3], over 128 µg/mL; in test [4], 128 µg/mL; in [5] it was 8 µg/mL; in test [6], over 128 µg/mL; in test [7], over 128 µg/mL. The MIC in test [8] was over 128 µg/mL; in test [9], 16 µg/mL; in test [10] it was over 128 µg/mL; in test [11] it was over 128 µg/mL; in [12] it was over 128 µg/mL; in [13], 128 µg/mL. Besides, the MIC in [14] amounted to 128 µg/mL.
